Laboratory results reported in patent publication US11773062B2, “Deuterated compounds” (priority 2021, dated 2023).
Like-named read-outs stand apart in the source and are kept apart here.

Experiments:
CYP2D6 [1] = biological target: T1, CYP2D6 (Homo sapiens, UniProt P10635); test: in vitro; details: recombinant enzyme, pH 7.4
Procedure: (§4) The CYPs used in this study are heterologously expressed in E. coli and purchased as individualised forms (CYP bactosomes) from CYPEX. Bactosomes contain recombinant CYP isoenzymes combined with CYP reductase leading to a higher specific activity than liver microsomes.
(§5) Phosphate buffer is prepared at 0.1 M, pH 7.4 by combining 0.1 M Na2HPO4 and 0.1 M KH2PO4 solutions.
(§6) Nicotinamide adenine dinucleotide 2′-phosphate reduced tetrasodium salt hydrate (NADPH) is prepared at 10 m<in 0.1 M phosphate buffer (pH 7.4).
(§7) The individual CYP bactosomes are thawed at room temperature undiluted to 200 pmol/mL and 0.1 M phosphate buffer.
(§8) Standard final incubation conditions are 1-3 μM compound in a buffer containing 100 pmol/mL CYP bactosome, 1% (v/v) DMSO.
(§9) The elimination rate constant (k) is calculated using the slope of a ln (MS peak area or response—if internal standard is used) vs. time plot of the test compounds and markers.
(§10) Intrinsic clearance in μL/min/nmol CYP is calculated using the following equation: Clint=−1000 k/CYP concentration
(§11) Projected CYP isoform intrinsic clearance accounting for estimated CYP abundance in human liver microsomes (μL/min/mg microsomal protein)* is calculated using the following equation: Projected set isoform intrinsic clearance=Estimated CYP abundance*Clint * Estimated CYP abundance is taken as an average from three literature references 1, 2 3 and the abundances used are as follows (nmol CYP/mg Human Liver Microsomal Protein):

CYP2D6 [2] = biological target: T1, CYP2D6; details: for intrinsic clearance, CYP isoform 2D6: human, recombinant enzyme, pH 7.4
Procedure: as §4, §5, §6, §7, §8, §9, §10, §11

CYP2C9 = CYP2C9 (Homo sapiens, UniProt P11712); test: in vitro
CYP2C9, sequence (P11712 whole entry): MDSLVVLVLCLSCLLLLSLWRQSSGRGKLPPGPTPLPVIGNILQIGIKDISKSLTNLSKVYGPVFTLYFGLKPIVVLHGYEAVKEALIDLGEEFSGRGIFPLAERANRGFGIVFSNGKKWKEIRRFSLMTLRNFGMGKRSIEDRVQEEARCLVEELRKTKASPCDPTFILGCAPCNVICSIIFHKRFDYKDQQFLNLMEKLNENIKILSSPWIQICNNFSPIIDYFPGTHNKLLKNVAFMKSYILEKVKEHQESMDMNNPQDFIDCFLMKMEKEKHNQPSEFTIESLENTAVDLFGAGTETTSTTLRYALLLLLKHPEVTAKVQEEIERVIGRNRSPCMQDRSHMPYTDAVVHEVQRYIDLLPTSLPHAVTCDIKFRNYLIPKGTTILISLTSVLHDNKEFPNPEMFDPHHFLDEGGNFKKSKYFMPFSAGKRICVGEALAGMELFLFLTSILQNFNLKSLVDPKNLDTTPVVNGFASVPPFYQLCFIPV
Procedure: (§1) Samples were taken at predetermined time points.
(§2) Samples were then centrifuged at −4° C.
(§3) Positive control markers are as specified in Table 11.

CYP3A4 = CYP3A4 (Homo sapiens, UniProt P08684); test: in vitro
CYP3A4, sequence (P08684 whole entry): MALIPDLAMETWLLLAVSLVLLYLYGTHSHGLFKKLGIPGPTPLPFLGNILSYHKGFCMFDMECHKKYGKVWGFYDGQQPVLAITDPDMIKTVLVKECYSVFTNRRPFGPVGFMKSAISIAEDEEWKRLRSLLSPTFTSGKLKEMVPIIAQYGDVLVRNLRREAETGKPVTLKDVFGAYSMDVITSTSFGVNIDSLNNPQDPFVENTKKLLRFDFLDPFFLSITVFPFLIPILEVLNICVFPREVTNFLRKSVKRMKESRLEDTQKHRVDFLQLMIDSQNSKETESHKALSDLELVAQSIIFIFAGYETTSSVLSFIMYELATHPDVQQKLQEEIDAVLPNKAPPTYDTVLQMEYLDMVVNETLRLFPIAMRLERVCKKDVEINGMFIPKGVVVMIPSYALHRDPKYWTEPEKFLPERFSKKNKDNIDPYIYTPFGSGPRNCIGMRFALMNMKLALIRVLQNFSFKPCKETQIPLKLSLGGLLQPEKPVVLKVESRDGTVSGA
Procedure: as §1, §2, §3

CYP2C19 = CYP2C19 (Homo sapiens, UniProt P33261); test: in vitro; details: for projected scaled intrinsic clearance, CYP isoform 2C19: scaled by estimated CYP abundance in human liver microsomes (0.009 nmol CYP/mg); for substrate for CYP2C19: CYP phenotyping
CYP2C19, sequence (P33261 whole entry, canonical isoform): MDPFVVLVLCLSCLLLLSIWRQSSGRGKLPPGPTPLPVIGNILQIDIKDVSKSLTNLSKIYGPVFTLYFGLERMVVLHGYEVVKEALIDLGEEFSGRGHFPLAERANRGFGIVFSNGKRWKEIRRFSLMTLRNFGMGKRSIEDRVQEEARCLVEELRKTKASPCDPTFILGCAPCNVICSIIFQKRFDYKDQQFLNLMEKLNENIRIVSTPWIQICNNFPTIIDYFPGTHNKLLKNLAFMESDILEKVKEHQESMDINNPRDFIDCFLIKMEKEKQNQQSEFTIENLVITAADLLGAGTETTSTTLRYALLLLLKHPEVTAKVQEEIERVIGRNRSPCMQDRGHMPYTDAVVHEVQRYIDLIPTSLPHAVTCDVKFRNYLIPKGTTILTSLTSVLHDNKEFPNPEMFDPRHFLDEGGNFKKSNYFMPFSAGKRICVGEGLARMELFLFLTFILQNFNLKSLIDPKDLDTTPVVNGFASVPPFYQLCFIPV
Procedure: as §1, §2, §3

CYP1A2 = biological target: T2, CYP1A2 (Homo sapiens, UniProt P05177); test: in vitro
T2 sequence (P05177 1-516): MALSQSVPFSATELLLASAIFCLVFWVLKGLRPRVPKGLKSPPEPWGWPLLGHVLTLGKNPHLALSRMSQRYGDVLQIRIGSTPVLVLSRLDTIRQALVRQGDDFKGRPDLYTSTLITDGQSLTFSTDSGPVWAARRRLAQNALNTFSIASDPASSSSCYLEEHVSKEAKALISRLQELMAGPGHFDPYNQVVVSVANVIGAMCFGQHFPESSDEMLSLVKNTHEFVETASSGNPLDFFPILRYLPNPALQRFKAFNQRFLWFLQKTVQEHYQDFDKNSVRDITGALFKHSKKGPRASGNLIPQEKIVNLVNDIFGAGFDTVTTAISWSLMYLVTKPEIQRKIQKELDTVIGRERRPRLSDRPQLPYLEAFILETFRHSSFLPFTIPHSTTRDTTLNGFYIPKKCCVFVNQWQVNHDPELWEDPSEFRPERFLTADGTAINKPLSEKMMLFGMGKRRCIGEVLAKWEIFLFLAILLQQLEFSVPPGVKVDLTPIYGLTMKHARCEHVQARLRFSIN
Procedure: as §1, §2, §3

CYP2D6 [3] = biological target: T1, CYP2D6; test: CYP phenotyping, CYP bactosomes; details: for half-life, CYP isoform 2D6 / intrinsic clearance, CYP isoform 2D6: E. coli CYPEX membranes, 100 pmol/mL CYP; for projected scaled intrinsic clearance, CYP isoform 2D6: scaled by estimated CYP abundance in human liver microsomes (0.012 nmol CYP/mg); for substrate for CYP2D6: CYP phenotyping
Procedure: as §4, §5, §6, §7, §8, §9, §10, §11

CYP3A5 = CYP3A5 (Homo sapiens, UniProt P20815); test: in vitro; details: E. coli CYPEX membranes, 100 pmol/mL CYP
CYP3A5, sequence (P20815 whole entry): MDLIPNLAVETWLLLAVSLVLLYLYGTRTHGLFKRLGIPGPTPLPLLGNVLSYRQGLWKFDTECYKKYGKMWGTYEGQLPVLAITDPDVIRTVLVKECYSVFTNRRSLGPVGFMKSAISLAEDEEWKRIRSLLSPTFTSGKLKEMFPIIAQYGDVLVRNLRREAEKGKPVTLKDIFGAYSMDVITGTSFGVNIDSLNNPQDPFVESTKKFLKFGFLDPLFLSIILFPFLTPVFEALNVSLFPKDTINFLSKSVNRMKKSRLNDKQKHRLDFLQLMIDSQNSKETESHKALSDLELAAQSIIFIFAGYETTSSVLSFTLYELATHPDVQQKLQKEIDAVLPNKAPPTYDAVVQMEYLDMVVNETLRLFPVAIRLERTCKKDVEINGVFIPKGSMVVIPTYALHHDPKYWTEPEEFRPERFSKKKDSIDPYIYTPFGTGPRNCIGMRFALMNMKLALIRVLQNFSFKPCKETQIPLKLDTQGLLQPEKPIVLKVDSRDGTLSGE
Procedure: as §1, §2, §3

CYP2B6 = biological target: T3, CYP2B6 (Homo sapiens, UniProt P20813); test: in vitro; details: E. coli CYPEX membranes, 100 pmol/mL CYP
T3 sequence (P20813 1-491): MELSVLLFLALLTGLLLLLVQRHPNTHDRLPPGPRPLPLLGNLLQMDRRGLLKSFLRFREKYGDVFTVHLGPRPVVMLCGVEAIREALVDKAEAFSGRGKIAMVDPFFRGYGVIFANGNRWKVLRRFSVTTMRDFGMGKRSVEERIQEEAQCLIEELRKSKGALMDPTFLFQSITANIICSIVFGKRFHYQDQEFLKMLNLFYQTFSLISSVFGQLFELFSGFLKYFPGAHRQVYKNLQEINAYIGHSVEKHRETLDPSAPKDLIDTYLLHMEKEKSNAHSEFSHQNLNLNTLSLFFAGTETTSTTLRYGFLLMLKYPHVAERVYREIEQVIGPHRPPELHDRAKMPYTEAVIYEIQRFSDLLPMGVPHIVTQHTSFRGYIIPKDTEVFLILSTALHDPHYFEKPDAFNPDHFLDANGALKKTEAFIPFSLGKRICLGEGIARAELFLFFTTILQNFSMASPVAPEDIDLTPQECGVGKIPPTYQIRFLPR
Procedure: as §1, §2, §3

CYP2C8 = biological target: T4, CYP2C8 (Homo sapiens, UniProt P10632); test: in vitro; details: E. coli CYPEX membranes, 100 pmol/mL CYP
T4 sequence (P10632 1-490): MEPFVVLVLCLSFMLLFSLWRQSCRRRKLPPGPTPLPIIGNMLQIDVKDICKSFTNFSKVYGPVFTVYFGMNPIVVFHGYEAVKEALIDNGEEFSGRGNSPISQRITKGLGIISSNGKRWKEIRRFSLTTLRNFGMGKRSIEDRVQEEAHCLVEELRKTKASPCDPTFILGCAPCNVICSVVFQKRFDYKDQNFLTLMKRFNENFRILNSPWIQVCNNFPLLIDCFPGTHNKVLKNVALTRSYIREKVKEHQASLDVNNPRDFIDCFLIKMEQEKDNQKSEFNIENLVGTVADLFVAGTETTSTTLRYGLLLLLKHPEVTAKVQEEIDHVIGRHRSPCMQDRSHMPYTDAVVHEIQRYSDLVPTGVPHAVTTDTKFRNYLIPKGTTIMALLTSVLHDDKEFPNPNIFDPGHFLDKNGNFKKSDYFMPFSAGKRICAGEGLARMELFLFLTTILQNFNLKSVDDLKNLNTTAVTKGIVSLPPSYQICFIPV
Procedure: as §1, §2, §3

[4] = Human liver mitochondrial fraction intrinsic clearance of SPL026, SPL028i, SPL028iii, SPL028viii; format: in vitro ADME; details: 0.5 mg/mL human liver mitochondrial fraction (Table 10)
Excerpt: Human Liver Mitochondrial (HLMt) fractions contain high quantities of MAO enzymes and therefore, provide a useful tool to measure the clearance of MAO substrates.

[5] = tested on: human (mixed gender) hepatocytes; test: In vitro intrinsic clearance in human hepatocytes with and without MAO-A/B inhibitor combination (first experiment); details: for % change in half-life, MAO inhibitors vs no inhibitors / % change in intrinsic clearance, MAO inhibitors vs no inhibitors: human hepatocytes (Table 5); for Intrinsic clearance, without inhibitors: without MAO-A/B inhibitor combination (Table 5)
Procedure: Standard final incubation conditions are 1 μM compound in buffer containing nominally ˜0.5 million viable cells/mL, ˜0.9% (v/v) acetonitrile (MeCN) and ˜0.1% (v/v) DMSO (specific assay concentrations outlined above, section 2).
Samples are then centrifuged at 4° C.

[6] = tested on: mouse (male CD-1) hepatocytes; test: In vitro mouse hepatocytic intrinsic clearance; details: mouse CD-1 hepatocytes 0.367 million cells/mL, 5 μM (Table 8)
[7] = human, recombinant enzyme, pH 7.4
[8] = E. coli CYPEX membranes, 100 pmol/mL CYP
[9] = human hepatocytes, with 100 nM clorgyline + 100 nM deprenyl/selegiline (Table 3)
[10] = human hepatocytes, with MAO-A/B inhibitor combination (Table 5)

T1 sequence (P10635 whole entry, canonical isoform): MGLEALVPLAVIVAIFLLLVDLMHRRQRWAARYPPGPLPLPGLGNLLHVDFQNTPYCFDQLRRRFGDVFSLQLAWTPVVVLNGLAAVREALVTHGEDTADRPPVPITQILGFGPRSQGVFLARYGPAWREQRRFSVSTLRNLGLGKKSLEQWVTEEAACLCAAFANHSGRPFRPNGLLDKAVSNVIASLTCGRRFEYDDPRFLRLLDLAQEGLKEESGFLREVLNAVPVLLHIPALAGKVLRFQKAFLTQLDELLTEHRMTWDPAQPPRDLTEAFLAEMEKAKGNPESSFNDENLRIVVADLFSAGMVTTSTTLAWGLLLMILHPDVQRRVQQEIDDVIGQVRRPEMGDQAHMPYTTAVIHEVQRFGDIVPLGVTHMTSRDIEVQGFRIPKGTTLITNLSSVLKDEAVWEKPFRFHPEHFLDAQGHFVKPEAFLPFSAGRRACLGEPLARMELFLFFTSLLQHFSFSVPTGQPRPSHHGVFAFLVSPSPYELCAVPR

Compound	half-life (CYP2D6 [1])	intrinsic clearance, CYP isoform 2D6 (CYP2D6 [2])	half-life, CYP isoform 2D6 (CYP2D6 [3])	intrinsic clearance, CYP isoform 2D6 (CYP2D6 [3])	projected scaled intrinsic clearance, CYP isoform 2D6 (CYP2D6 [3])	half-life, CYP isoform 2C9 (CYP2C9; [8])	intrinsic clearance, CYP isoform 2C9 (CYP2C9; [8])	half-life, CYP isoform 3A4 (CYP3A4; [8])	intrinsic clearance, CYP isoform 3A4 (CYP3A4; [8])	half-life, CYP isoform 2C19 (CYP2C19; [8])	intrinsic clearance, CYP isoform 2C19 (CYP2C19; [8])	projected scaled intrinsic clearance, CYP isoform 2C19 (CYP2C19)	half-life, CYP isoform 3A5 (CYP3A5)	intrinsic clearance, CYP isoform 3A5 (CYP3A5)	half-life, CYP isoform 2B6 (CYP2B6)	half-life, CYP isoform 1A2 (CYP1A2; [8])	half-life, CYP isoform 2C8 (CYP2C8)	intrinsic clearance, CYP isoform 2C8 (CYP2C8)	projected scaled intrinsic clearance, CYP isoform 2D6 (CYP2D6 [2])	% change in half-life, MAO inhibitors vs no inhibitors [5]	further results
COc1ccccc1OCCNCC(O)COc1cccc2[nH]c3ccccc3c12 (stereo not drawn) [Carvedilol, reference compound]	2 min	4483 μL/min/nmol CYP	–	–	–	–	–	–	–	–	–	–	–	–	–	–	–	–	–	–	half-life (CYP2C9; [7]): 2.23 h; intrinsic clearance, CYP isoform 2C9 (CYP2C9; [7]): 52 μL/min/nmol CYP; half-life (CYP3A4; [7]): 0.817 h; intrinsic clearance, CYP isoform 3A4 (CYP3A4; [7]): 142 μL/min/nmol CYP; half-life (CYP2C19; [7]): 0.217 h; intrinsic clearance, CYP isoform 2C19 (CYP2C19; [7]): 526 μL/min/nmol CYP; half-life (CYP1A2; [7]): 0.5 h; intrinsic clearance, CYP isoform 1A2 (CYP1A2; [7]): 231 μL/min/nmol CYP
CN(C)CCc1c[nH]c2ccccc12 [DMT in SPL028i]	–	–	0.167 h	687 μL/min/nmol CYP	8.1 μl/min/mg microsomal protein	>4 h	<29 μL/min/nmol CYP	>4 h	<29 μL/min/nmol CYP	2.93 h	40 μL/min/nmol CYP	0.4 μl/min/mg microsomal protein	>4 h	<29 μL/min/nmol CYP	>4 h	>4 h	>4 h	<29 μL/min/nmol CYP	–	–	–
CN(C)CCc1c[nH]c2ccccc12 [DMT in SPL028ii]	–	–	0.15 h	803 μL/min/nmol CYP	9.5 μl/min/mg microsomal protein	>4 h	<29 μL/min/nmol CYP	>4 h	<29 μL/min/nmol CYP	2.7 h	43 μL/min/nmol CYP	0.4 μl/min/mg microsomal protein	>4 h	<29 μL/min/nmol CYP	>4 h	>4 h	>4 h	<29 μL/min/nmol CYP	–	–	–
COc1ccc2c(c1)[C@]13CCCC[C@@H]1[C@H](C2)N(C)CC3 [Dextromethorphan]	3 min	2686 μL/min/nmol CYP	–	–	–	–	–	–	–	–	–	–	–	–	–	–	–	–	–	–	–
[2H]C([2H])(Cc1c[nH]c2ccccc12)N(C)C [SPL028i, α,α,-bis-deuterium-N,N-dimethyltryptamine]	–	–	0.15 h	793 μL/min/nmol CYP	–	>4 h	<29 μL/min/nmol CYP	>4 h	<29 μL/min/nmol CYP	3 h	39 μL/min/nmol CYP	0.3 μl/min/mg microsomal protein	>4 h	<29 μL/min/nmol CYP	>4 h	>4 h	>4 h	<29 μL/min/nmol CYP	9.4 μl/min/mg microsomal protein	−5.33%	Intrinsic Clearance [4]: 44.6 μL/min/mg protein; % change in intrinsic clearance, MAO inhibitors vs no inhibitors [5]: 4.67%; Intrinsic clearance, with inhibitors [5, 9]: 7.50 μL/min/million cells; Half-life, with inhibitors [5, 10]: 2.8292 h; Intrinsic clearance, with inhibitors [5, 10]: 7.5 μL/min/million cells; Half-life, with inhibitors ([5]; human hepatocytes, with MAO-A/B inhibitors (Table 4; unit given only in Table 5)): 2.8292 h; quicker intrinsic clearance in the presence of MAO inhibitors ([5]; human hepatocytes, with vs without MAO inhibitors): ~5%; Intrinsic clearance, without inhibitors ([5]; human hepatocytes): 7.15 μL/min/million cells; substrate for CYP2D6 (CYP2D6 [3]): substrates; substrate for CYP2C19 (CYP2C19): substrates; w Half-life [6]: 0.323 h; w Intrinsic clearance [6]: 97.4 μL/min/million cells; intrinsic clearance, CYP isoform 2B6 (CYP2B6): <29 μL/min/nmol CYP; intrinsic clearance, CYP isoform 1A2 (CYP1A2; [8]): <29 μL/min/nmol CYP
[2H]C([2H])(Cc1c[nH]c2ccccc12)N(C)C [SPL028ii, α,α,-bis-deuterium-N,N-dimethyltryptamine]	–	–	0.15 h	801 μL/min/nmol CYP	–	>4 h	<29 μL/min/nmol CYP	>4 h	<29 μL/min/nmol CYP	2.93 h	39 μL/min/nmol CYP	0.4 μl/min/mg microsomal protein	>4 h	<29 μL/min/nmol CYP	>4 h	>4 h	>4 h	<29 μL/min/nmol CYP	9.5 μl/min/mg microsomal protein	14.69%	% change in intrinsic clearance, MAO inhibitors vs no inhibitors [5]: −19.13%; Intrinsic clearance, with inhibitors [5, 9]: 8.78 μL/min/million cells; Intrinsic clearance, with inhibitors [5, 10]: 8.78 μL/min/million cells; Intrinsic clearance, without inhibitors ([5]; human hepatocytes): 10.46 μL/min/million cells; substrate for CYP2D6 (CYP2D6 [3]): substrates; substrate for CYP2C19 (CYP2C19): substrates; w Half-life [6]: 0.307 h; w Intrinsic clearance [6]: 102.7 μL/min/million cells; intrinsic clearance, CYP isoform 2B6 (CYP2B6): <29 μL/min/nmol CYP; intrinsic clearance, CYP isoform 1A2 (CYP1A2; [8]): <29 μL/min/nmol CYP
